Data taken from patent US10966995B2, “Use of secoisolariciresinol diglucosides (SDGS) and related compounds for protection against radiation and chemical damage” (THE TRUSTEES OF THE UNIVERSITY OF PENNSYLVANIA, priority 2014, dated 2021).
pEC50: −log10 of the molar value.

Legend:
calf thymus DNA [1] = assay: Radiation-induced calf thymus DNA fragmentation assay; format: biochemical; details: for Radioprotective properties of SDG and metabolites compared / Radioprotection in calf thymus DNA fragmentation assay at low concentrations / High mol. wt. DNA form after radiation exposure: 50 Gy; for Radioprotective properties of SDG and metabolites compared: 10 μM of each agent; for Radioprotection in calf thymus DNA fragmentation assay at low concentrations: 0.5-10 μM; for High mol. wt. DNA form after radiation exposure: 25, 50, 100 and 250 μM; for Radiation-induced generation of low mol. wt. fragments: at the concentration of 5 (unit not given); for Radiation induced generation of low mol. wt. fragments: at the lowest concentration tested
Method: (§1) Plasmid DNA (pBR322) or calf thymus DNA samples with or without varying concentrations of SDG (R,R), SDG (S,S) and SDG (commercial) were exposed to γ-radiation with a Mark 1 cesium (Cs-137) irradiator (J. L. Shepherd, San Fernando, Calif.) at a dose rate of 1.7 Gy/min in phosphate buffered saline, pH 7.4 (PBS).
The effect of test compounds on radiation-induced strand breaks in DNA was determined using calf thymus DNA (Sigma, St. Louis, Mo.). DNA (500 ng) in PBS (pH 7.4) was mixed with varying concentrations (25-250 μM) of SDG (R,R), SDG (S,S) and SDG (commercial) and irradiated at 50 Gy for 30 min. A second series of experiments were performed at varying concentrations ranging from 0.5-10 μM. Samples were mixed with loading dye and subjected to agarose (1%) gel electrophoresis in TAE buffer (pH, 8.3) at 100 V. The gel was stained with ethidium bromide (0.5 μg/ml) for 40 min, washed for 20 min and then visualized on a UV trans-illuminator (Bio-Rad, Hercules, Calif.). The captured gel images were scanned and the density of the calf thymus DNA fragments was determined by Gel-Pro image analyzer program (Media Cybernetics, Silver Spring, Md.). The density of the low mol. wt (<6,000 bps) and the high mol. wt (>6,000 bps) fragments of calf thymus DNA was expressed as % of the total density (low mol wt.+high mol. wt.).

human epithelial cells = assay: BaP-induced DNA adduct formation; format: cell-based; details: given alone or in combination
Text: Similarly, SDG prevents genotoxic stress in human epithelial cells exposed to BaP. Exposure of cells to a potent carcinogen such as BaP, induces genotoxic stress as indicated by increased levels of p53 protein (FIG. 25). […] SDG also prevents oxidative DNA damages in human epithelial cells exposed to BaP. Exposure of cells to a potent carcinogen such as BaP, induces oxidative DNA damage as indicated by increased levels of gamma-H2AX, a marker for double-stranded DNA breaks (FIG. 26). […] Furthermore, SDG prevents DNA adduct formation in human epithelial cells exposed to BaP. Exposure of cells to a potent carcinogen such as BaP, induces the formation of DNA adducts (FIG. 27). DNA adducts are pieces of DNA covalently linked to a carcinogen and is directly linked to the development of malignancy. The DNA adduct levels is decreased by the presence of SDG or its metabolites ED and EL given alone or in combination.

Plasmid DNA (pBR322) = assay: Plasmid DNA relaxation assay after γ-radiation; format: biochemical; details: for pEC50: 25 Gy γ radiation, 25-250 μM tested, read-out: EC50 (effective concentration needed to prevent 50% of plasmid relaxation); for SC and OC forms of plasmid DNA: 25 Gy, 25, 50, 100 and 250 μM
Method: as §1
The effect of test compounds on radiation-induced strand breaks and supercoil (SC) to open coil (OC) conversion was determined using plasmid DNA (pBR322) (Life Technologies, Carlsbad, Calif.). Plasmid DNA (500 ng) in PBS (pH 7.4) was mixed with various concentrations (25-250 μM) of SDG (R,R), SDG (S,S) and SDG (commercial) and irradiated at 25 Gy in PBS. At 30 min post radiation exposure, samples were mixed with loading dye and subjected to agarose (1%) gel electrophoresis in TAE buffer (pH, 8.3) at 100 V. The gel was stained with ethidium bromide (0.5 μg/ml) for 40 min, washed for 20 min and then visualized on a UV trans-illuminator (Bio-Rad, Hercules, Calif.). The captured gel images were scanned and the density of the open coiled (OC) and super coiled (SC) plasmid DNA bands determined by Gel-doc image analyzer program. The density of the SC and OC plasmid DNA was expressed as % of the total density (OC+SC).

[2] = Hypochlorite scavenging with APF/HPF fluorescent probes (sodium hypochlorite); details: 0.5 μM; similar to silibinin
Method: The fluorescence of ROS probes APF and HPF in PBS was measured at excitation/emission at 490 nm/515 nm in presence of hypochlorite or after γ-radiation exposure. Data is expressed as relative fluorescence units (RFU).

calf thymus DNA [3] = assay: Hypochlorite-induced damage to calf thymus DNA; format: biochemical; details: 0.5 mM hypochlorite; test agents 1.0 μM
Method: Calf thymus or plasmid DNA was incubated with hypochlorite for 2 hrs at 37° C. DNA samples were subjected to agarose (1%) gel electrophoresis and analyzed.

Row | SMILES | Radioprotective properties of SDG and metabolites compared (calf thymus DNA [1]) | pEC50 (Plasmid DNA (pBR322)) | ClO^− scavenging potency [2] | High mol. wt. DNA form after radiation exposure (calf thymus DNA [1]) | further results
1 | OC[C@H](Cc1cccc(O)c1)[C@H](CO)Cc1cccc(O)c1 [ED, enterodiol] | equipotent |  |  |  | DNA adduct levels (human epithelial cells): decreased
2 | O=C1OC[C@H](Cc2cccc(O)c2)[C@H]1Cc1cccc(O)c1 [EL, enterolactone] | equipotent |  |  |  | DNA adduct levels (human epithelial cells): decreased
3 | COc1cc(C[C@@H](CO[C@@H]2O[C@H](CO)[C@@H](O)[C@H](O)[C@H]2O)[C@H](CO[C@@H]2O[C@H](CO)[C@@H](O)[C@H](O)[C@H]2O)Cc2ccc(O)c(OC)c2)ccc1O [SDG (R,R), secoisolariciresinol diglucoside] |  | 3.89 | comparable potency | radioprotective properties | SC and OC forms of plasmid DNA (Plasmid DNA (pBR322)): prevented the radiation-induced damage to plasmid DNA in a concentration-dependent manner; Radioprotection in calf thymus DNA fragmentation assay at low concentrations (calf thymus DNA [1]): strong radioprotection characteristics even at low concentrations; Radiation-induced generation of low mol. wt. fragments (calf thymus DNA [1]): completely prevented; Radiation induced generation of low mol. wt. fragments (calf thymus DNA [1]): completely prevented
4 | COc1cc(C[C@H](CO[C@@H]2O[C@H](CO)[C@@H](O)[C@H](O)[C@H]2O)[C@@H](CO[C@@H]2O[C@H](CO)[C@@H](O)[C@H](O)[C@H]2O)Cc2ccc(O)c(OC)c2)ccc1O [SDG (S,S), secoisolariciresinol diglucoside] |  | 3.85 | comparable potency | the proportion of the high mol. wt. DNA form increased significantly | SC and OC forms of plasmid DNA (Plasmid DNA (pBR322)): the proportion of the SC form increased and the density of OC form decreased significantly; Radioprotection in calf thymus DNA fragmentation assay at low concentrations (calf thymus DNA [1]): strong radioprotection characteristics even at low concentrations; Radiation-induced generation of low mol. wt. fragments (calf thymus DNA [1]): completely prevented; Radiation induced generation of low mol. wt. fragments (calf thymus DNA [1]): completely prevented
5 | COc1cc(C[C@@H](CO[C@@H]2O[C@H](CO)[C@@H](O)[C@H](O)[C@H]2O)[C@H](CO[C@@H]2O[C@H](CO)[C@@H](O)[C@H](O)[C@H]2O)Cc2ccc(O)c(OC)c2)ccc1O [SDG (commercial), Secoisolariciresinol Diglucoside] |  | 4.01 | comparable potency | radioprotective properties | 
6 | COc1cc(CC(CO)C(CO)Cc2ccc(O)c(OC)c2)ccc1O (centres unmarked) [SECO, 2,3-bis (3-methoxy-4-hydroxybenzyl) butane-1,4-diol] | equipotent |  |  |  | 
7 | O=c1c(O)c(-c2ccc(O)c(O)c2)oc2cc(O)cc(O)c12 [quercetin] |  |  |  |  | Hypochlorite-induced damage to genomic DNA (calf thymus DNA [3]): comparable
